Results reported in US10835624B2, “Compounds for imaging Tau protein aggregates” (AC IMMUNE S.A., priority 2016, dated 2020).
pIC50, pKd: −log10 of the molar value. Marks after values point to notes of the source that are not given here.

Tests used:
amyloid-beta = amyloid-beta (Homo sapiens, UniProt P05067); test: Binding affinity to amyloid-beta in AD brain homogenate; conditions: non-radioactive derivatives; for pIC50: human AD brain homogenate
Experimental: 20 μg of human Alzheimer disease brain homogenate was incubated with a dilution series of each test compound (1000 to 0.06 nM) in the presence of 800 Bq of ^18F-labeled beta-amyloid binder. The samples were shaken at 110 rpm for 45 min at 37° C. Samples were then filtered through GF/B 96 well filter plates and washed twice with 300 μL assay buffer (PBS containing 0.1% BSA and 2% DMSO). Thereafter, filter plates were sealed and a Fuji Film Imaging Plate (BAS-SR2025) was placed on top. The imaging plate was analyzed after overnight exposition using a Fuji Film BAS-5000. Non-specific signal was determined with samples containing ^18F-labeled beta-amyloid binder in the presence of assay buffer without brain substrate and competitor. […] The unblocked ^18F-labeled beta-amyloid binder signal was defined as total binding. IC50 values were calculated by Prism V6 (GraphPad) setting total binding to 100%.

MAO B = biological target: T1, MAO B (Homo sapiens, UniProt P27338); test: MAO B 18F-fluoro deprenyl competition assay in human HC brain homogenate; assay type: binding; parameters: Low affinity to MAO B (IC50 in HC homogenate): key: −: poor; ∘: moderate; +: good; ++: very good; +++: excellent
T1 construct: 20 μg of human brain homogenate (without AD pathology); from tissue; host or cells: human brain homogenate without AD pathology (healthy control)
T1 sequence (P27338 1-520): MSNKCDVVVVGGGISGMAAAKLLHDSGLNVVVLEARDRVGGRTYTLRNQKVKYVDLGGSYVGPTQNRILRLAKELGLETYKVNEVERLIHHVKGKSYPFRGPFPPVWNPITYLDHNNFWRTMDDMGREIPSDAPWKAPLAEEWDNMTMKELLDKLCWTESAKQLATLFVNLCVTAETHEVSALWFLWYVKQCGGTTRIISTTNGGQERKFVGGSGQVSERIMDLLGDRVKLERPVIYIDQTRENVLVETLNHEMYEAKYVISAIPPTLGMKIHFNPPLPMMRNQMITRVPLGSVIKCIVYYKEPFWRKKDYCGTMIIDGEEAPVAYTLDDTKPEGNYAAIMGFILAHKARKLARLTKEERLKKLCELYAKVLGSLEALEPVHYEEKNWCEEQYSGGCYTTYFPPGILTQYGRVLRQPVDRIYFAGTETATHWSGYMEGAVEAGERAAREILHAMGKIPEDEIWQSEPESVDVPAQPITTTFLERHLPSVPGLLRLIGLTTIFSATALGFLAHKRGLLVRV
Experimental: The samples were shaken at 110 rpm for 45 min at 37° C. Samples were then filtered through GF/B 96 well filter plates and washed twice with 300 μL assay buffer (PBS containing 0.1% BSA and 2% DMSO). Thereafter, filter plates were sealed and a Fuji Film Imaging Plate (BAS-SR2025) was placed on top. The imaging plate was analyzed after overnight exposition using a Fuji Film BAS-5000. […] IC50 values were calculated by Prism V6 (GraphPad) setting total binding to 100%.

[1] = biological target: T2, Monoamine oxidase A (MAO A) (Homo sapiens, UniProt P21397); conditions: Vermeiren et al. 2015; cited from earlier work
T2 sequence (P21397 1-527): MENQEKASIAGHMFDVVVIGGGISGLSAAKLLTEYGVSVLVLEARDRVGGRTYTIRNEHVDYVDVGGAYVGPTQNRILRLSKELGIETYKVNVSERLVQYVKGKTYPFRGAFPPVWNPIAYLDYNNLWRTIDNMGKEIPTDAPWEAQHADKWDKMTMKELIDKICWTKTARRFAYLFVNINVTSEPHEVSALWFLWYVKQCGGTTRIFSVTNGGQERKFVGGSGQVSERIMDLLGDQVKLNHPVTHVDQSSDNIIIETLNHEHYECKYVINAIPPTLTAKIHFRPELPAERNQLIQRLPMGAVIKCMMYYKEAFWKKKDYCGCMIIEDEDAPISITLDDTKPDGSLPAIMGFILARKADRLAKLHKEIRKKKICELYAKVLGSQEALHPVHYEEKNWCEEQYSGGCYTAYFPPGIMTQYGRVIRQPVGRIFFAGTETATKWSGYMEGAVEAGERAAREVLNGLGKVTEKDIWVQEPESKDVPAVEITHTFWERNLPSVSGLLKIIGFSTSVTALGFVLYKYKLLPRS

Tau pathology = test: Human imaging study (dynamic PET); assay type: in vivo
Experimental: In a clinical trial, subjects with AD or PSP as well as non-demented controls (NDC) underwent dynamic PET imaging for over 3 h following 370 MBq bolus injection of ^18F-3a.

[2] = test system: Tau in human brain sections (AD, PSP, PiD, HC); test: Autoradiography in human brain slices; assay type: binding
Experimental: 18 micron thick frozen human brain slices and 6 micron thick human FFPE brain slices were examined via autoradiography. Brain sections were equilibrated for at least 1 h in 1×PBS solution prior to use in the experiment. Each brain section was covered with a solution of the ^18F-labeled tracer (200 Bq/μl, 500 μl) in 1×PBS. For blocking experiments with the corresponding ^19F-compound, an excess of the blocking compound (10 μM) was mixed with the ^18F-compound. The brain sections were allowed to incubate with the tracer solution at room temperature for 1 h, drained afterwards and placed in a slide holder. The slides were then washed sequentially with 1×PBS for 1 min; 70% EtOH in 1×PBS for 2 min; 30% EtOH in 1×PBS for 2 min; and 1×PBS for 1 min. The slides were allowed to air-dry before being placed on Fuji imaging plates […] for overnight exposure. The imaging plates were scanned and the signal was measured using Fuji software to produce an autoradiographic image of the brain section.

[3] = test system: Tau (AD brain vs mouse brain homogenate); test: Tracer signal in AD brain vs mouse brain homogenate; assay type: binding, human / mouse; parameters: High signal to noise (AD brain/mouse brain homogenate): key: −: poor; ∘: moderate; +: good; ++: very good; +++: excellent
[4] = test system: Tau (AD brain homogenate vs HC brain homogenate); test: Tracer signal in AD brain homogenate vs healthy control brain homogenate; assay type: binding, human; parameters: High signal to noise (AD brain homogenate/HC brain homogenate) / High signal to noise (further homogenates): key to the marks not given beside the values; conditions: for Ratio of tracer signal in AD brain homogenates/signal in HC brain homogenates: further homogenates

Sequence of amyloid-beta (P05067 672-711 limits assumed): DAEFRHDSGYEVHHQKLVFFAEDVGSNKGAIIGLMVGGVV

SMILES: [18F]c1ccc(-c2ccc3c(c2)[nH]c2ccncc23)cn1 [^18F-1]
- pIC50 (amyloid-beta): < 6.00
- pIC50 (MAO B): 6.77
- pKd [1]: 8.82

SMILES: [18F]c1ccc(-c2ccc3c(n2)[nH]c2ccncc23)cn1 [^18F-2]
- pIC50 (amyloid-beta): < 6.00
- pIC50 (MAO B): < 6.00

SMILES: [18F]c1cc(-c2ccc3c(n2)[nH]c2ccncc23)ccn1 [^18F-3a]
- Brain uptake in human subjects (Tau pathology; 370 MBq bolus injection, PET): good
- Washout from non-target brain regions in human subjects (Tau pathology; 370 MBq bolus injection, PET): fast
- Uptake in temporal, parietal and frontal lobes (Tau pathology; AD subjects): focal asymmetric uptake
- Uptake in globus pallidus and substantia nigra (Tau pathology; PSP subjects): focal increased uptake
- Uptake in choroid plexus, basal ganglia, striatum, amygdala, meninges or other off-target regions (Tau pathology; non-demented controls (NDC)): no increased uptake
- Low affinity to amyloid-beta (IC50 in AD brain homogenate) (amyloid-beta; grade): +++^a)
- pIC50 (amyloid-beta): < 6.00
- Autoradiography signal in PSP brain sections [2]: strong signal
- Autoradiography signal in PiD brain sections [2]: strong signal
- Autoradiography signal in healthy control (HC) sections [2]: no specific signal
- Autoradiography signal in AD brain sections ([2]; blockable with excess cold compound): strong punctated staining
- Binding to AD brain (Braak stage 1/3), autoradiography on human brain slices ([2]; grade, in house data): +++^a)
- Binding to AD brain (Braak stage 5/6), autoradiography on human brain slices ([2]; grade, in house data): +++^a)
- Binding to PSP, autoradiography on human brain slices ([2]; grade, in house data): +++^a)
- Binding to PiD, autoradiography on human brain slices ([2]; grade, in house data): +++^a)
- pIC50 (MAO B): < 6.00
- Fold higher MAO B IC50 than compound 18F-1 (MAO B; HC brain homogenate): > 5 fold
- Low affinity to MAO B (IC50 in HC homogenate) (MAO B; grade, non-radioactive derivatives): +++
- Ratio of tracer signal in AD brain/signal in mouse brain homogenate ([3]; 18F tracers): 9.2^a
- Fold higher signal to noise ratio than 18F-1 ([3]; AD brain homogenate vs whole mouse brain homogenate): 4.2 fold
- High signal to noise (AD brain/mouse brain homogenate) ([3]; grade): ++
- Fold higher signal to noise ratio than 18F-1 ([4]; AD brain homogenate vs HC brain homogenate): 5.2 fold
- Fold higher signal to noise ratio than 18F-1 ([4]; further AD brain homogenates vs HC brain homogenate): 8.2-13.5 fold
- Ratio of tracer signal in AD brain homogenates/signal in HC brain homogenates ([4]; first of 3 values): 14.0
- Ratio of tracer signal in AD brain homogenates/signal in HC brain homogenates ([4]; second of 3 values): 17.9
- Ratio of tracer signal in AD brain homogenates/signal in HC brain homogenates ([4]; third of 3 values): 33.8
- High signal to noise (further homogenates) ([4]; grade, 3 different AD brain homogenates): +++
- High signal to noise (AD brain homogenate/HC brain homogenate) ([4]; grade, 18F tracers): ++
